The text below walks through data of PMC4144425, “Discovery of a novel iota carrageenan sulfatase isolated from the marine bacterium Pseudoalteromonas carrageenovora” (Frontiers in Chemistry, 2014).

In the assay the target is T1, Recombinant ι-CgsA (Pseudoalteromonas carrageenovora, UniProt A0A2K4X859).
T1 construct: gene PCARR_a1089; without signal peptide (cleavage Ala22/Gln23 predicted in the Q3IKL4 ortholog), N-terminal 6 His-tag, pFO4 vector, E. coli BL21(DE3); primers for cloning deduced from the P. haloplanktis TAC 125 gene
The experiment in a line: methylumbelliferone release, absorbance at […] nm; hyperbolic regression. It is filed as biochemical. The following applies: 35 °C, pH 8.3, 50 mM Tris-HCl, 200 mM NaCl; MUFS 5.2 to 206.5 μM; preliminary; read-out: Apparent Km.

T1 sequence (A0A2K4X859 entry or part of it): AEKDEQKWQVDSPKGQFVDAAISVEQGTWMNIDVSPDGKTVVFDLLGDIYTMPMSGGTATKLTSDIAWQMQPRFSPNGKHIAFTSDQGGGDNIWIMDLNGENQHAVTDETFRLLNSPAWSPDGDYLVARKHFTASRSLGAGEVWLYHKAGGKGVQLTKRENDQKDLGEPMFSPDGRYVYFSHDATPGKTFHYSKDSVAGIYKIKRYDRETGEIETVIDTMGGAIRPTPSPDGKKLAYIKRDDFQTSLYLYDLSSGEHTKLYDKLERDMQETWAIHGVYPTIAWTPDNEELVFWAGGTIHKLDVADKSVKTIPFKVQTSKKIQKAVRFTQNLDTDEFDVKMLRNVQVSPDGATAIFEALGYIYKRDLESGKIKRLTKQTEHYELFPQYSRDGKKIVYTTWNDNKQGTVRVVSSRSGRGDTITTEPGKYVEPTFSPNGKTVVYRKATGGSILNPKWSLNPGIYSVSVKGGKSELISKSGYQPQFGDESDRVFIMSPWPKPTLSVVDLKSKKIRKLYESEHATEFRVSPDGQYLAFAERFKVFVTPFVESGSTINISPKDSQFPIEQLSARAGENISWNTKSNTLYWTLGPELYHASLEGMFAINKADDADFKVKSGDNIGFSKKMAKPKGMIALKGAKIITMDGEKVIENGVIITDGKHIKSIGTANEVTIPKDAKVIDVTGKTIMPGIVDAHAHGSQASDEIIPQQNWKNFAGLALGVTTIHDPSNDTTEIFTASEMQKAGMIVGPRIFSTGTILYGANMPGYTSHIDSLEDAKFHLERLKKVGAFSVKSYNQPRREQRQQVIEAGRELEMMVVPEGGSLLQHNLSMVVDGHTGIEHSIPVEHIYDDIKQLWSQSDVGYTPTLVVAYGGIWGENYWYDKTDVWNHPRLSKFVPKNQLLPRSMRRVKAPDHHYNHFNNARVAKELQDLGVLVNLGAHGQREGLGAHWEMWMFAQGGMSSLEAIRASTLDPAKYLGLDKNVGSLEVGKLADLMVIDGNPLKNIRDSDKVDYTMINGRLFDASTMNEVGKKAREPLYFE

Consider `Cc1cc(=O)oc2cc(OS(=O)(=O)O)ccc12` [MUFS], for which the Km (usually the concentration of substrate that gives half-maximal velocity) was 13.4 ± 4.9 µM.
